Test results taken from patent publication US20040171632A1, “Combination chemotherapy” (priority 1998, published 2004).
Each block holds one molecule with its values, some of them ahead of it.

Tests used:
colon 26 carcinoma cells = experiment: apoptosis of colon 26 carcinoma cells in culture (phalloidin-FITC, flow cytometry); assay type: cell-based, mouse; conditions: for increase of apoptosis: FIG. 1; for incidence in apoptosis: second study, FIG. 2
Experimental: The data establish that the vehicle alone (DMSO) caused no effect on apoptosis (programmed cell death) of the colon 26 carcinoma cells. […] At the 30 nM concentration of paclitaxel, the combination caused about an 18% incidence in apoptosis.
The assay described above was repeated, and the results (see FIG. 2) confirmed that the combinations of this invention are useful to treat and control cancer. In this second study, DMSO did cause measurable cell death, somewhat similar to that observed with the 30 nM concentration of paclitaxel alone.

[1] = test system: non-small cell lung carcinoma cells (A549); conditions: Taxol alone at 10 nM; one set of experiments
Experimental: The colon 26 carcinoma cells were originally collected from a mouse that had undergone surgery to remove the infected section of the colon, and are now readily available from Southern Research Institute (Birmingham, Ala., USA). The cells were cultured to approximately 80% confluency on Day 0 of the assay. At 72 hours after the 80% confluency was established, dimethylsulfoxide (DMSO) was added to one set of cells to act as untreated controls. Paclitaxel at concentrations of 30 nM and 100 nM was added to other sets of cells. All of the cells were incubated at 38° C. for 48 hours, at which time MEK inhibitor 2-(2-chloro-4-iodophenylamino)-N-cyclopropylmethoxy-3,4-difluorobenzamide (PD184352), at a concentration of 1.0 micromolar, was added to one set of the DMSO control cells, and to the cells containing the two concentrations of paclitaxel. All cells were again incubated for an additional 48-hour period. The cells were harvested from the growth medium, and were fixed in ethanol. The cells were then treated with FITC (fluorescein isothiocyanate)-labeled phalloidin (Sigma). Binding of phalloidin-FITC to depolymerized actin thereby serves as a measure of apoptosis. Propidium iodide was also added to the treated and control cells for the purpose of staining all cells. The extent of apoptosis of tumor cells was measured by flow cytometry analysis. […]

melting point: 99 to 100.5 °C
Structure (SMILES): Cc1cc(I)ccc1Nc1cc(F)ccc1CO [Example 49, 4-Fluoro-2-(4-iodo-2-methyl-phenylamino)-benzyl alcohol]

melting point: 120 to 121 °C
Structure (SMILES): Cc1cc(I)ccc1Nc1ccc(Cl)cc1C(=O)NCCO [Example 31, 5-Chloro-N-(2-hydroxyethyl)-2-(4-iodo-2-methyl-phenylamino)-benzamide]

Second part, the molecule before the results:

Structure (SMILES): O=C(NOCC1CC1)c1ccc(F)c(F)c1Nc1ccc(I)cc1Cl [PD184352, 2-(2-chloro-4-iodophenylamino)-N-cyclopropylmethoxy-3,4-difluorobenzamide]
increase of apoptosis (colon 26 carcinoma cells; MEK inhibitor alone, at 30 nM as printed): about 5% | incidence in apoptosis (colon 26 carcinoma cells; MEK inhibitor administered alone): ~18%

Structure (SMILES): Cc1cc(I)ccc1Nc1ccccc1-c1nnn[nH]1 [Example 208, (4-iodo-2-methyl-phenyl)-[2-(1H-tetrazol-5-yl)-phenyl]amine]
melting point: 231 °C

Structure (SMILES): CC(=O)O[C@H]1C(=O)[C@@]2(C)[C@H]([C@H](OC(=O)c3ccccc3)[C@]3(O)C[C@H](OC(=O)[C@H](O)[C@@H](NC(=O)c4ccccc4)c4ccccc4)C(C)=C1C3(C)C)[C@]1(OC(C)=O)CO[C@@H]1C[C@@H]2O [paclitaxel]
increase of apoptosis (colon 26 carcinoma cells; paclitaxel alone at 30 nM): about 9% | increase of apoptosis (colon 26 carcinoma cells; paclitaxel alone at 100 nM): about 18% | incidence in apoptosis (colon 26 carcinoma cells; paclitaxel at 100 nM alone): ~11% | incidence of apoptosis [1]: 41%
